Reference: BindingDB's records for doi:10.1016/j.bmc.2006.09.047 (Astellas Pharma, 2007)

Biological target: PI3-kinase p110α (Bos taurus)
Assay: The test compounds and enzyme were mixed in buffer, and the substrate and [gamma-33P] ATP/ATP were added to the mixture to initiate the reaction. After allowing the reaction to proceed at room temperature for 120 min, wheat germ agglutinin-coated SPA beads (Amersham) was added. The mixture was left to stand for 5 min and then centrifuged. Radi
Settings: pH 7.4

IC50	Structure (SMILES)
100 nM	Cc1ccc([N+](=O)[O-])cc1S(=O)(=O)n1ccc(-c2cnc3ccc(Cl)cn23)c1 [3-{6-chloroimidazo[1,2-a]pyridin-3-yl}-1-[(2-methyl-5-nitrobenzene)sulfonyl]-1H-pyrrole]
> 30000 nM	Cc1nc2ccc(Cl)cn2c1-c1ccn(S(=O)(=O)c2ccc([N+](=O)[O-])cc2)n1 [3-{6-chloro-2-methylimidazo[1,2-a]pyridin-3-yl}-1-[(4-nitrobenzene)sulfonyl]-1H-pyrazole]
